Where two headings read alike, the source gives them in different places.
Legend:
[1] = target: T1, SERT (Homo sapiens, UniProt P31645); assay: SERT inhibition assay (Neurotransmitter Transportation Fluorescence assay, stable 5 HTT cells); assay type: cell-based
T1 construct: expressed in transfected cells
Description: SERT inhibition can be measured using a Neurotransmitter Transportation Fluorescence assay. Briefly, stable 5 HTT cells were prepared in a 384 microwell plate. Compounds were prepared in assay buffer (20 mM HEPES, 0.1% BSA). The compounds were added to the plated cells and incubated for 30 minutes at 37° C. 25 μL of dye solution (Molecular Devices Neurotransmitter Transporter Uptake Assay Kit) is added per well and incubated for 30 minutes at 37° C. The plates are then read on a plate reader.

[2] = in vivo; cited from earlier work
[3] = Intestinal S9 metabolic stability, human; assay type: in vitro ADME
Description: (§1) A master solution was prepared according to the Table B2 below.
(§2) Add 222.5 μL of master solution and 25 μL of 10 mM NADPH solution to the incubation plates. Pre-warm for 10 min. The reaction was started with the addition of 2.5 μL of 100 μM control compound or test compound solutions. Verapamil, Midazolam and Testosterone were used as positive control in this study. The final concentration of control compounds and test compounds was 1 μM. Aliquots of 25 μL were taken from the reaction solution at 0.5, 5, 15, 30, 45 and 60 minutes. The reaction was stopped by the addition of 5 volumes of cold acetonitrile with IS (100 nM alprazolam, 200 nM caffeine and 100 nM tolbutamide). Samples were centrifuged at 3, 220 g for 30 minutes. Aliquot of 100 μL of the supernatant was mixed with 100 μL of ultra-pure H2O and then used for LC-MS/MS analysis.
(§3) All calculations were carried out using Microsoft Excel. Peak areas were determined from extracted ion chromatograms. The slope value, k, was determined by linear regression of the natural logarithm of the remaining percentage of the parent drug vs. incubation time curve. The in vitro half-life (in vitro t1/2) was determined from the slope value:
(§4) Conversion of the in vitro t1/2 (min) into the in vitro intrinsic clearance (in vitro CLint, in uL/min/mg protein) was done using the following equation (mean of duplicate determinations): […]
The metabolic stability of Compound 243 was tested in human, monkey, dog and rat (2 replicate measurement). For comparison, verapamil was tested in human and monkey (2 replicates), midazolam was tested in dog (2 replicates), and testosterone was tested in rat (2 replicates).

[4] = assay type: in vitro ADME, dog
Description: as §1, §2, §3, §4

[5] = Intestinal S9 metabolic stability, rat; assay type: in vitro ADME
Description: as §1, §2, §3, §4

T1 sequence (P31645 whole entry, species assumed): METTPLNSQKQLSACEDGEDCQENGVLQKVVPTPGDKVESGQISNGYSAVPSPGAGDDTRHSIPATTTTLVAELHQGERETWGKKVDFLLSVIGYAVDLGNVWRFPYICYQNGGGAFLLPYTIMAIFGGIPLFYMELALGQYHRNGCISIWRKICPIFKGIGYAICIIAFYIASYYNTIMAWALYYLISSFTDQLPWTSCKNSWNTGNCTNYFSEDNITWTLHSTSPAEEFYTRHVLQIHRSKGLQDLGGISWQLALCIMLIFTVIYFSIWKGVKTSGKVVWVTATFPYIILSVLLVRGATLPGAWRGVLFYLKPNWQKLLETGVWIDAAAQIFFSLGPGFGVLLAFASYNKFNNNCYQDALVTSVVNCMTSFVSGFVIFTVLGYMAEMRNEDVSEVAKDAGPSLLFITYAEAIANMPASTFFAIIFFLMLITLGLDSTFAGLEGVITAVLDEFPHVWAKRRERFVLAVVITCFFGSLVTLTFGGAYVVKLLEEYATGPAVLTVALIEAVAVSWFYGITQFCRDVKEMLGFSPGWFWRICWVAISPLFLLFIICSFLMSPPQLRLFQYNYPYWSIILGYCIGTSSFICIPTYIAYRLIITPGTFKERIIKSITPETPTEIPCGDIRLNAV

COc1ccc([C@@]23CCC(C)=C[C@@H]2N(C)CC3)cc1OC [drawing 204]
IC50 [1]: < 50 nM

COc1ccc([C@@]23CCC(=O)C[C@@H]2N(C)CC3)cc1OC [Compound 001, (−)-Mesembrine]
half-life in plasma [2]: less than 2 hours

COc1ccc([C@@]23CCC(C)=C[C@@H]2N(C)CC3)cc1OC [Compound 243, (3aS,7aS)-3a-(3,4-dimethoxyphenyl)-1,6-dimethyl-2,3,3a,4,5,7a-hexahydro-1H-indole]
IC50 ([1]; Table B1): < 50 nM
median half-life, times greater than verapamil [3]: 33 times
median CLint (micrograms/min/mg protein), times greater for verapamil than Compound 243 ([3]; human, 1 µM): more than 23 times
half-life at 1 µM ([3]; human, s9): > 24 h
median half-life, times greater than the half-life of midazolam [4]: more than 168 times
median CLint (micrograms/min/mg protein), times greater for midazolam than Compound 243 ([4]; dog, 1 µM): more than 164 times
median CLint (micrograms/min/mg protein), times greater for testosterone than Compound 243 ([5]; 1 µM): about 30 times
median half-life, times greater than the half-life of testosterone ([5]; Compound 243 versus testosterone): about 30 times

COc1ccc([C@@]23CCC(C)=C[C@@H]2N(C)CC3)cc1OC [drawing 205]
IC50 [1]: < 50 nM

COc1ccc([C@@]23CC=C(C)C[C@@H]2N(C)CC3)cc1OC [Compound 242, (3aS,7aS)-3a-(3,4-dimethoxyphenyl)-1,6-dimethyl-2,3,3a,4,7,7a-hexahydro-1H-indole]
IC50 ([1]; Table B1): < 50 nM

COc1ccc([C@@]23CC=C(C)C[C@@H]2N(C)CC3)cc1OC [drawing 203]
IC50 [1]: < 50 nM
